The values that follow come from US20240158391A1, “DERIVATIVES OF 4-(IMIDAZO[1,2-A]PYRIDIN-3-YL)-N-(PYRIDIN-3-YL) PYRIMIDIN-2- AMINE FOR TREATING PROLIFERATIVE DISEASES AND CONDITIONS” (AUCENTRA THERAPEUTICS PTY LTD, priority 2019, published 2024).

Each structure is given as a SMILES string. Bounds are passed on as bounds.

The target in one test is CDK1/CyclinB (Homo sapiens, UniProt P06493). Description: ADP Glo kinase assay, CDK1/CyclinB. The note with it: for remaining activity at 1 µM: compound at 1 μM, read-out: Residual enzymatic activity (%) at 1 μM, CDK1 B; for Ki: Km ATP, read-out: Enzymatic inhibition, Ki, CDK1 B. It is filed as biochemical. Summed up:
(§1)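 ADP Glo reagent terminates each kinase reaction after an optimised incubation at room temperature. Compounds are tested at ten concentrations spanning 10 to 0.0005 μM, diluted 1:3, with 0.5% DMSO.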
(In ADP-Glo the light output rises with the ADP produced.)

The target of the next test is CDK2/CyclinA2 (Homo sapiens, UniProt P24941). The test is described as follows: ADP Glo kinase assay, CDK2/CyclinA2. The format is biochemical. The note with it: for remaining activity at 1 µM: compound at 1 μM, read-out: Residual enzymatic activity (%) at 1 μM, CDK2 A; for Ki: Km ATP, read-out: Enzymatic inhibition, Ki, CDK2 A. A digest of the protocol:
as §1

Another test has as its target CDK4/CyclinD1 (Homo sapiens, UniProt P11802). Description: ADP Glo kinase assay, CDK4/CyclinD1. It is filed as biochemical. The note with it: for remaining activity at 1 µM: compound at 1 μM, read-out: Residual enzymatic activity (%) at 1 μM, CDK4 D1; for Ki: Km ATP, read-out: Enzymatic inhibition, Ki, CDK4 D1. Summed up:
as §1

The target of a further test is CDK6/CyclinD3 (Homo sapiens, UniProt Q00534). Description: ADP Glo kinase assay, CDK6/CyclinD3. The format is biochemical. The note with it: for remaining activity at 1 µM: compound at 1 μM, read-out: Residual enzymatic activity (%) at 1 μM, CDK6 D3; for Ki: Km ATP, read-out: Enzymatic inhibition, Ki, CDK6 D3. A digest of the protocol:
as §1

The next test deals with CDK7/CyclinH/Mat1 (Homo sapiens, UniProt P50613). The test is described as follows: ADP Glo kinase assay, CDK7/CyclinH/Mat1. The format is biochemical. The note with it: for remaining activity at 1 µM: compound at 1 μM, read-out: Residual enzymatic activity (%) at 1 μM, CDK7 H; for Ki: Km ATP, read-out: Enzymatic inhibition, Ki, CDK7 H. A digest of the protocol: as §1
CDK7/CyclinH/Mat1, sequence (P50613 whole entry, species assumed): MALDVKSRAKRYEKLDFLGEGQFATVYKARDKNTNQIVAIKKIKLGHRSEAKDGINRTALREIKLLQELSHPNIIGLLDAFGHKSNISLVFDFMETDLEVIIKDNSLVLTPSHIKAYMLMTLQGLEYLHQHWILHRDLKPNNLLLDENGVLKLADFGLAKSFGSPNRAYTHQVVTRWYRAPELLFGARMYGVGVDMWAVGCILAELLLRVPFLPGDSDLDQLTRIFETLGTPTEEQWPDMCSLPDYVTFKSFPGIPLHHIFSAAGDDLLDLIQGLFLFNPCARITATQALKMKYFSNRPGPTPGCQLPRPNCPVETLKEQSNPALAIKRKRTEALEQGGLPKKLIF
CDK7/CyclinH/Mat1, sequence (P51946 whole entry partner, species assumed): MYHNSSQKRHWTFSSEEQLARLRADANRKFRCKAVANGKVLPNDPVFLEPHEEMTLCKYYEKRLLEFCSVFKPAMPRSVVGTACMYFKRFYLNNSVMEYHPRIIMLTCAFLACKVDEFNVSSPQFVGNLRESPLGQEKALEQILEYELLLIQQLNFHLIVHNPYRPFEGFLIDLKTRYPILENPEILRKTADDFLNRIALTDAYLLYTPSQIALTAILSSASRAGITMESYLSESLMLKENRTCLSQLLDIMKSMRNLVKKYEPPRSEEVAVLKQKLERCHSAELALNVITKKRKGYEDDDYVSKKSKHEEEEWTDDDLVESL
CDK7/CyclinH/Mat1, sequence (P51948 whole entry partner, species assumed): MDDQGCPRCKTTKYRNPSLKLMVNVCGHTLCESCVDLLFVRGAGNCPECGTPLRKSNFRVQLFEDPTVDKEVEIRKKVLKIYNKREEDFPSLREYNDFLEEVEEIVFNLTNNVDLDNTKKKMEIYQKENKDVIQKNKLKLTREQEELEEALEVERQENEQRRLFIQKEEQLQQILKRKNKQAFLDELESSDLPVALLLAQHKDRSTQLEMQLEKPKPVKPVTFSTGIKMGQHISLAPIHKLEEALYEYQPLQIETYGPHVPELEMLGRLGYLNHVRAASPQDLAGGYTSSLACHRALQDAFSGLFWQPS
For another test, the target named is CDK9/CyclinT1 (Homo sapiens, UniProt P50750). The test is described as follows: ADP Glo kinase assay, CDK9/CyclinT1. The format is biochemical. The note with it: CDK9/CyclinT1; Km ATP; read-out: Enzymatic inhibition, Ki, CDK9 T1. Summed up:
as §1

The next test deals with T1, FLT3-ITD (Homo sapiens, UniProt P36888).
T1 sequence (P36888 1-993): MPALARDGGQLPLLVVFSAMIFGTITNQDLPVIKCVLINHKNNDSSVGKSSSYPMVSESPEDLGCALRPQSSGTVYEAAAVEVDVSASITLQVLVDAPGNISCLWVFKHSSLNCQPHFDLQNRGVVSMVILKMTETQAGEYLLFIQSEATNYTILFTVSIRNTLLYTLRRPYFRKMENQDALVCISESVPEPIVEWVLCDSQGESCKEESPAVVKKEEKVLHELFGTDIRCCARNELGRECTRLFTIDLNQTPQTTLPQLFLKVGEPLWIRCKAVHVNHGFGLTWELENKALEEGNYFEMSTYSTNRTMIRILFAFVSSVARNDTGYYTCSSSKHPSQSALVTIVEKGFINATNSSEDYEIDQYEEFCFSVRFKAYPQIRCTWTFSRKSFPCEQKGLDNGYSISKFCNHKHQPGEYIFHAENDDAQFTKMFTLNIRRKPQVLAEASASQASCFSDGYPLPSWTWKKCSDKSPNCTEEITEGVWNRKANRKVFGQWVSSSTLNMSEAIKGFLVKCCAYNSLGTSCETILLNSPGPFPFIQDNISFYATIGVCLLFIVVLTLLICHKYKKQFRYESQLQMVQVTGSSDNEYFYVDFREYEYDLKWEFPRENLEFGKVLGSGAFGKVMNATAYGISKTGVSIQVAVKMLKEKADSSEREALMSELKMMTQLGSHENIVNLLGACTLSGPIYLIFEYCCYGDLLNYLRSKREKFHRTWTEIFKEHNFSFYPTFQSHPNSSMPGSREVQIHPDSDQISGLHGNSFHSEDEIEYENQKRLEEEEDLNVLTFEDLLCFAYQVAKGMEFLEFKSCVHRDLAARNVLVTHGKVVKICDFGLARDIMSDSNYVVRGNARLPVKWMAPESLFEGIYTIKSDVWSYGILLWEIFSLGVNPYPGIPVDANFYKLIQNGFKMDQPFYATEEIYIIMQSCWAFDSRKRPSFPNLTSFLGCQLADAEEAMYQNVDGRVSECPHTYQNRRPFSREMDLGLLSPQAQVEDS
Description: ADP Glo kinase assay, FLT3-ITD. The format is biochemical. The note with it: Km ATP 100 μM, read-out: Enzymatic inhibition, Ki, FLT3-ITD. Summed up:
as §1

In the next test the test system is MV-4-11. The test is described as follows: Proliferation assay (resazurin, leukemia cell lines), MV-4-11. The format is cell-based. The note with it: Homo sapiens, MV4-11, read-out: 72 h Growth inhibition GI50, MV-4-11 cells. An excerpt: The following compounds were used as comparators.
A general note: Alamar Blue is a resazurin reagent that responds to reducing activity.

CDK9/CyclinT1, sequence (P50750 whole entry, species assumed): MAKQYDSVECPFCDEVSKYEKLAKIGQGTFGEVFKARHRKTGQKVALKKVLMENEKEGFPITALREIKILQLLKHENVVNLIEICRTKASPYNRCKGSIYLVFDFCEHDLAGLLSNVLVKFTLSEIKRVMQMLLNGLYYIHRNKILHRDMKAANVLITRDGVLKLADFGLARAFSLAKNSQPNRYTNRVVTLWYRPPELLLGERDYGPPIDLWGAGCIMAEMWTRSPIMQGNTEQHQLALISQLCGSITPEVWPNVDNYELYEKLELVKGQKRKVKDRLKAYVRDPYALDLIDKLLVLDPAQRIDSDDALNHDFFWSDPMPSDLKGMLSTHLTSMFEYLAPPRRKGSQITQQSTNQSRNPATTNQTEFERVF
CDK9/CyclinT1, sequence (O60563 whole entry partner, species assumed): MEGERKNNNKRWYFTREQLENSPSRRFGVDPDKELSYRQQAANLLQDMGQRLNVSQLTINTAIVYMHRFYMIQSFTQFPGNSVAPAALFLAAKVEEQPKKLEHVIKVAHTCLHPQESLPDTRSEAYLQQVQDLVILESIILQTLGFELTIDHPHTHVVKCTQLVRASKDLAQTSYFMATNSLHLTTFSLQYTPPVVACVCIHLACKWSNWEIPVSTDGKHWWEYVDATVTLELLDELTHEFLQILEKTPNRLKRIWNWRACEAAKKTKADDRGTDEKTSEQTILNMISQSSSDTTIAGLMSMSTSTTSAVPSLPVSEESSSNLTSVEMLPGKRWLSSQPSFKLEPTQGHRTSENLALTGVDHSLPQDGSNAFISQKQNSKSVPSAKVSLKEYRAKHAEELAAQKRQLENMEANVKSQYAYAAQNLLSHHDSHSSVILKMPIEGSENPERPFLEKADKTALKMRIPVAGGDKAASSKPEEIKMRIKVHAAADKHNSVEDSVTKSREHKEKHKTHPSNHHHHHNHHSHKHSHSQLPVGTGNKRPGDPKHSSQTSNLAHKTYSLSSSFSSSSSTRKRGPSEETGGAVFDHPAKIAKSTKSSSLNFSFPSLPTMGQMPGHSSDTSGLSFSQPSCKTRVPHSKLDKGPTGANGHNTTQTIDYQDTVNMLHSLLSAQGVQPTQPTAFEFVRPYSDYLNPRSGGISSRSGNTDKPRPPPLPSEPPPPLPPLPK
CDK1/CyclinB, sequence (P06493 whole entry, species assumed): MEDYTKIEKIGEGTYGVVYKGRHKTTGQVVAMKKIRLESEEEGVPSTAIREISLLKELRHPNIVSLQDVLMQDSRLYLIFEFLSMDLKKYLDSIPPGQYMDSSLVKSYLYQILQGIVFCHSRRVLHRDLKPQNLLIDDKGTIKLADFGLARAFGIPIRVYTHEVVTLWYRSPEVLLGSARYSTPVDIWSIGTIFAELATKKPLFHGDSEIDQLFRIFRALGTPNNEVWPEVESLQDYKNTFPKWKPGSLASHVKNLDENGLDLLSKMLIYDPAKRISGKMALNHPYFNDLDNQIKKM
CDK1/CyclinB, sequence (P14635 whole entry partner, species assumed): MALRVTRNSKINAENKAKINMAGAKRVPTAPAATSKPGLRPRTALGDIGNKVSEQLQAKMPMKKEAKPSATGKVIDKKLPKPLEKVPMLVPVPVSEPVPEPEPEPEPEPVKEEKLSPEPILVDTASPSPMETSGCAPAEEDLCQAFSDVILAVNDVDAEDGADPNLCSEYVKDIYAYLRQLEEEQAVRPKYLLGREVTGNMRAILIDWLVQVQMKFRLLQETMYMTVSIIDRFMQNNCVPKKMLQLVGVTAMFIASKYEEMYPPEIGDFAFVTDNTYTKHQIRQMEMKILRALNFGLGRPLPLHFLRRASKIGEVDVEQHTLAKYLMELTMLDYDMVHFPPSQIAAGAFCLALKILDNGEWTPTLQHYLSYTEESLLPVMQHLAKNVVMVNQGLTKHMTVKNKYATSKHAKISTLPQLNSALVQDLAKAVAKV
CDK6/CyclinD3, sequence (Q00534 whole entry, species assumed): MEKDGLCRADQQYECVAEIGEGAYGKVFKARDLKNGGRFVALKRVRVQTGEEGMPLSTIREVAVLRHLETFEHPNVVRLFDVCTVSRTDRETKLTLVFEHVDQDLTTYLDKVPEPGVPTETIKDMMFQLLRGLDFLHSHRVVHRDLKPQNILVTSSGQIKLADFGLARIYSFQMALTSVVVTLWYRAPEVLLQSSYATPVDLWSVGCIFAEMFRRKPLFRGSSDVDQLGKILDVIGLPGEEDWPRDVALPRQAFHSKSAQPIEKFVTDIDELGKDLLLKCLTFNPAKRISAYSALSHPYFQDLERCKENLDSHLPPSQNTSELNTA
CDK6/CyclinD3, sequence (P30281 whole entry partner, species assumed): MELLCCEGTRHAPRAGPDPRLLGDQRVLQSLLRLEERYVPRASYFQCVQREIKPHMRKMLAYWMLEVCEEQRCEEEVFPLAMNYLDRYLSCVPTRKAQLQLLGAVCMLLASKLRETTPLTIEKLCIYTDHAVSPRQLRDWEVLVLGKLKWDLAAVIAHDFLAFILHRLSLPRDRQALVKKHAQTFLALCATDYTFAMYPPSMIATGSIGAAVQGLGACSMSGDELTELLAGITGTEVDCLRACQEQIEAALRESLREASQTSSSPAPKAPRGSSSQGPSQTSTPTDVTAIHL
CDK4/CyclinD1, sequence (P11802 whole entry, species assumed): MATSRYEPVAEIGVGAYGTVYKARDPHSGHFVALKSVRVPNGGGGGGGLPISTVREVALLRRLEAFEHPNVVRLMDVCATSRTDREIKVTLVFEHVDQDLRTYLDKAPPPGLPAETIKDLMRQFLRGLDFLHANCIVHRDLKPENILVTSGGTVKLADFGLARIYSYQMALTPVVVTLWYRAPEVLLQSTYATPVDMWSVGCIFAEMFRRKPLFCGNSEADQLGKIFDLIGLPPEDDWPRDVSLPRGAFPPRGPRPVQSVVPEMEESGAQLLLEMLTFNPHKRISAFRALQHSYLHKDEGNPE
CDK4/CyclinD1, sequence (P24385 whole entry partner, species assumed): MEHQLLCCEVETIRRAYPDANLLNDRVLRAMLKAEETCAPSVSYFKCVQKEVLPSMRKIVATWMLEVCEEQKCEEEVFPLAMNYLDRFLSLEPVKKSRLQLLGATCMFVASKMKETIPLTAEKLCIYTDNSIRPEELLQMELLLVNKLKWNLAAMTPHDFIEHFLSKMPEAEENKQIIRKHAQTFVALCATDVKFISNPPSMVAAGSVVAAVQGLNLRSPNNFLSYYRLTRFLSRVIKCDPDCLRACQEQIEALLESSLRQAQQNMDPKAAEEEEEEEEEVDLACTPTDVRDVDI

With `Fc1cnc(Nc2ccc(Cl)nc2)nc1-c1cnc2ccc(-c3ccccc3)cn12` [Compound 34, N-(6-Chloropyridin-3-yl)-5-fluoro-4-(6-phenylimidazo[1,2-a]pyridin-3-yl)pyrimidin-2-amine], the remaining activity at 1 µM was determined as 100% on CDK1/CyclinB; 86% at CDK2/CyclinA2; 92% on CDK4/CyclinD1; 47% on CDK6/CyclinD3; 92% at CDK7/CyclinH/Mat1. Further, the Ki (in general, the dissociation constant of the complex between target and ligand, obtained from inhibition or displacement) was 330 nM at CDK9/CyclinT1 and more than 1000 nM on FLT3-ITD. The GI50 (as a rule, the concentration at which growth is held to half of that of the control) in the test with MV-4-11 worked out at 920 nM.

Turning to `CN1CCN(c2ccc(Nc3nccc(-c4cnc5ccc(C(F)(F)F)cn45)n3)cn2)CC1` [Compound 36, N-(6-(4-Methylpiperazin-1-yl)pyridin-3-yl)-4-(6-(trifluoromethyl)imidazo[1,2-a]pyridin-3-yl)pyrimidin-2-amine], the Ki at CDK1/CyclinB was determined as 198 nM; at CDK2/CyclinA2, 131 nM; at CDK4/CyclinD1, 530 nM; on CDK9/CyclinT1 it was 34 nM; at FLT3-ITD, 10 nM. For the same molecule, the remaining activity at 1 µM stood at 34% at CDK6/CyclinD3 and 31% on CDK7/CyclinH/Mat1. Besides, the GI50 in the test with MV-4-11 was determined as 18 nM.

As for `CC(C)N1CCN(c2ccc(Nc3nccc(-c4cnc5ccc(Cl)cn45)n3)cn2)CC1` [Compound 37, 4-(6-Chloroimidazo[1,2-a]pyridin-3-yl)-N-(6-(4-isopropylpiperazin-1-yl)pyridin-3-yl)pyrimidin-2-amine], the Ki at CDK1/CyclinB was 151 nM; at CDK2/CyclinA2 it was 72 nM; at CDK4/CyclinD1 it was 154 nM; at CDK6/CyclinD3 it was 215 nM; at CDK7/CyclinH/Mat1, 174 nM; on CDK9/CyclinT1, 14 nM. On FLT3-ITD, the Ki amounted to 26 nM. Moreover, the GI50 in the test with MV-4-11 is 24 nM.

On to `CC(C)N1CCN(c2ccc(Nc3nccc(-c4cnc5ccc(-c6ccccc6)cn45)n3)cn2)CC1` [Compound 39, N-(6-(4-Isopropylpiperazin-1-yl)pyridin-3-yl)-4-(6-phenylimidazo[1,2-a]pyridin-3-yl)pyrimidin-2-amine], for which the remaining activity at 1 µM was found to be 46% at CDK1/CyclinB, 55% on CDK4/CyclinD1 and 41% on CDK6/CyclinD3. Also, the Ki at CDK2/CyclinA2 amounted to 563 nM; at CDK7/CyclinH/Mat1 it was 149 nM; on CDK9/CyclinT1 it was 9 nM; on FLT3-ITD, 12 nM. Besides, the concentration for 50% growth inhibition (GI50) with MV-4-11 turned out to be 88 nM.

For `CC(C)N1CCN(c2ccc(Nc3nccc(-c4cnc5ccc(-c6ccncc6)cn45)n3)cn2)CC1` [Compound 40, N-(6-(4-Isopropylpiperazin-1-yl)pyridin-3-yl)-4-(6-(pyridin-4-yl)imidazo[1,2-a]pyridin-3-yl)pyrimidin-2-amine], the remaining activity at 1 µM at CDK1/CyclinB was 41%; at CDK4/CyclinD1, 57%; on CDK6/CyclinD3, 52%; on CDK7/CyclinH/Mat1, 32%. In addition, the Ki on CDK2/CyclinA2 is 344 nM; at CDK9/CyclinT1, 12 nM; on FLT3-ITD it was 11 nM. Further, the GI50 in the test on MV-4-11 is 47 nM.

On to `CC(=O)N1CCN(c2ccc(Nc3nccc(-c4cnc5ccccn45)n3)cn2)CC1` [Compound 41, 1-(4-(5-((4-(Imidazo[1,2-a]pyridin-3-yl)pyrimidin-2-yl)amino)pyridin-2-yl)piperazin-1-yl)ethan-1-one], for which the remaining activity at 1 µM at CDK1/CyclinB was 31%; at CDK2/CyclinA2, 22%; on CDK4/CyclinD1, 53%; at CDK6/CyclinD3 it was 70%; on CDK7/CyclinH/Mat1, 77%. The Ki stood at 91 nM on CDK9/CyclinT1 and 32 nM at FLT3-ITD. Also, the GI50 in the test on MV-4-11 was 27 nM.

Regarding `Brc1ccc2ncc(-c3ccnc(Nc4ccc(N5CCNCC5)nc4)n3)n2c1` [Compound 42, 4-(6-Bromoimidazo[1,2-a]pyridin-3-yl)-N-(6-(piperazin-1-yl)pyridin-3-yl)pyrimidin-2-amine], the Ki at CDK1/CyclinB is 78 nM; on CDK2/CyclinA2 it was 31 nM; at CDK6/CyclinD3, more than 500 nM; at CDK9/CyclinT1 it was 29 nM; on FLT3-ITD it was 9 nM. The remaining activity at 1 µM was 24% at CDK4/CyclinD1 and 27% on CDK7/CyclinH/Mat1. Further, the GI50 with MV-4-11 was 22 nM.
